Assay results reported in ChEMBL document CHEMBL5107956, “Natural products from mangrove sediments-derived microbes: Structural diversity, bioactivities, biosynthesis, and total synthesis” (Eur J Med Chem, 2022).
pIC50: −log10 of the molar value. Values after ≈ are worked out from the molar mass of the structure shown. Blank lines part the entries; values can stand above or below the compound they belong to.

What was measured:
SGC-7901 = assay: Cytotoxicity against human SGC-7901 cells assessed as cell growth inhibition measured after 48 hrs by MTT assay; assay type: functional, cell-based; conditions: SGC-7901, 48 h
NCI-H1975 = assay: Cytotoxicity against human NCI-H1975 cells assessed as cell growth inhibition measured after 72 hrs by MTT assay; assay type: functional, cell-based; conditions: NCI-H1975, 72 h
HL-60 [1] = assay: Cytotoxicity against human HL-60 cells assessed as cell growth inhibition measured after 72 hrs by MTT assay; assay type: functional, cell-based; conditions: HL-60, 72 h
[2] = target: Rho-associated protein kinase 2 (Homo sapiens, UniProt O75116); assay: Inhibition of ROCK2 (unknown origin) by HTRF kinase assay
MCF7 [3] = assay: Cytotoxicity against human MCF7 cells assessed as cell growth inhibition by MTT assay; assay type: functional, cell-based
A549 [4] = assay: Cytotoxicity against human A549 cells assessed as cell growth inhibition by MTT assay; assay type: functional, cell-based
HepG2 = assay: Cytotoxicity against human HepG2 cells assessed as cell growth inhibition by MTT assay; assay type: functional, cell-based
A-375 = assay: Cytotoxicity against human A-375 cells assessed as cell growth inhibition by MTT assay; assay type: functional, cell-based
HL-60 [5] = assay: Antiproliferative activity against human HL-60 cells assessed as cell growth inhibition measured after 72 hrs by CCK-8 assay; assay type: functional, cell-based; conditions: HL-60, 72 h
K562 = assay: Antiproliferative activity against human K562 cells assessed as cell growth inhibition measured after 72 hrs by CCK-8 assay; assay type: functional, cell-based; conditions: K562, 72 h
ACHN [6] = assay: Antiproliferative activity against human ACHN cells assessed as cell growth inhibition measured after 72 hrs by CCK-8 assay; assay type: functional, cell-based
SF-268 = assay: Cytotoxicity against human SF-268 cells assessed as cell growth inhibition; assay type: functional, cell-based
NCI-H460 = assay: Cytotoxicity against human NCI-H460 cells assessed as cell growth inhibition; assay type: functional, cell-based
MCF7 [7] = assay: Cytotoxicity against human MCF7 cells assessed as cell growth inhibition; assay type: functional, cell-based
[8] = tested on: Pseudopestalotiopsis theae; assay: Antifungal activity against Pestalotiopsis theae assessed as fungal cell growth inhibition; assay type: functional; conditions: read-out: ED50 (the source's name)
[9] = Toxicity in brine shrimp assessed as induction of lethality; conditions: artemia salina; read-out: LD50 (the source's name)
ACHN [10] = assay: Antiproliferative activity against human ACHN cells assessed as cell growth inhibition; assay type: functional, cell-based
Candida albicans = assay: Antifungal activity against Candida albicans assessed as fungal growth inhibition measured after 20 hrs; assay type: functional
[11] = target: Angiotensin-converting enzyme (Homo sapiens, UniProt P12821); assay: Inhibition of ACE (unknown origin) using hippuryl-histidyl-leucine as substrate pre-incubated with compound for 10 mins followed by substrate addition measured after 60 mins by HPLC analysis
OS-RC-2 = assay: Antiproliferative activity against human OS-RC-2 cells assessed as cell growth inhibition measured after 72 hrs by CCK-8 assay; assay type: functional, cell-based; conditions: OS-RC-2, 72 h
[12] = tested on: Trypanosoma brucei brucei; assay: Antitrypanosomal activity against Trypanosoma brucei brucei GUTat3.1 assessed as parasite growth inhibition measured after 24 hrs by alamar blue staining based analysis; assay type: functional, organism-based; conditions: GUTat3.1, 24 h
[13] = tested on: Colletotrichum gloeosporioides; assay: Antifungal activity against Colletotrichum gloeosporioides assessed as inhibition of fungal growth measured after 72 hrs by micro plate reader analysis; assay type: functional
[14] = Cytotoxicity against human HCC366 cells assessed as cell growth inhibition measured after 96 hrs by CellTiter-Glo assay; assay type: functional, cell-based; conditions: HCC366, 96 h
NCI-H2122 = assay: Cytotoxicity against human NCI-H2122 cells assessed as cell growth inhibition measured after 96 hrs by CellTiter-Glo assay; assay type: functional, cell-based; conditions: NCI-H2122, 96 h
A549 [15] = assay: Cytotoxicity against human A549 cells assessed as cell growth inhibition measured after 72 hrs by MTT assay; assay type: functional, cell-based; conditions: A549, 72 h
HCT-116 = assay: Cytotoxicity against human HCT-116 cells assessed as cell growth inhibition by SRB assay; assay type: functional, cell-based
SW-620 = assay: Cytotoxicity against human SW-620 cells assessed as cell growth inhibition by SRB assay; assay type: functional, cell-based
HeLa = assay: Cytotoxicity against human HeLa cells assessed as cell growth inhibition by MTT assay; assay type: functional, cell-based
[16] = Cytotoxicity against human ACC-MESO-1 cells assessed as cell growth inhibition by MTT assay; assay type: functional, cell-based
HCT-8 = assay: Cytotoxicity against human HCT-8 cells assessed as cell growth inhibition by MTT assay; assay type: functional, cell-based
A549 [17] = assay: Antiproliferative activity against human A549 cells assessed as cell growth inhibition by MTT assay; assay type: functional, cell-based
A2780 = assay: Cytotoxicity against human A2780 cells assessed as cell growth inhibition by MTT assay; assay type: functional, cell-based
Bel-7402 = assay: Cytotoxicity against human Bel-7402 cells assessed as cell growth inhibition by MTT assay; assay type: functional, cell-based

Sequence of Rho-associated protein kinase 2 (O75116 whole entry): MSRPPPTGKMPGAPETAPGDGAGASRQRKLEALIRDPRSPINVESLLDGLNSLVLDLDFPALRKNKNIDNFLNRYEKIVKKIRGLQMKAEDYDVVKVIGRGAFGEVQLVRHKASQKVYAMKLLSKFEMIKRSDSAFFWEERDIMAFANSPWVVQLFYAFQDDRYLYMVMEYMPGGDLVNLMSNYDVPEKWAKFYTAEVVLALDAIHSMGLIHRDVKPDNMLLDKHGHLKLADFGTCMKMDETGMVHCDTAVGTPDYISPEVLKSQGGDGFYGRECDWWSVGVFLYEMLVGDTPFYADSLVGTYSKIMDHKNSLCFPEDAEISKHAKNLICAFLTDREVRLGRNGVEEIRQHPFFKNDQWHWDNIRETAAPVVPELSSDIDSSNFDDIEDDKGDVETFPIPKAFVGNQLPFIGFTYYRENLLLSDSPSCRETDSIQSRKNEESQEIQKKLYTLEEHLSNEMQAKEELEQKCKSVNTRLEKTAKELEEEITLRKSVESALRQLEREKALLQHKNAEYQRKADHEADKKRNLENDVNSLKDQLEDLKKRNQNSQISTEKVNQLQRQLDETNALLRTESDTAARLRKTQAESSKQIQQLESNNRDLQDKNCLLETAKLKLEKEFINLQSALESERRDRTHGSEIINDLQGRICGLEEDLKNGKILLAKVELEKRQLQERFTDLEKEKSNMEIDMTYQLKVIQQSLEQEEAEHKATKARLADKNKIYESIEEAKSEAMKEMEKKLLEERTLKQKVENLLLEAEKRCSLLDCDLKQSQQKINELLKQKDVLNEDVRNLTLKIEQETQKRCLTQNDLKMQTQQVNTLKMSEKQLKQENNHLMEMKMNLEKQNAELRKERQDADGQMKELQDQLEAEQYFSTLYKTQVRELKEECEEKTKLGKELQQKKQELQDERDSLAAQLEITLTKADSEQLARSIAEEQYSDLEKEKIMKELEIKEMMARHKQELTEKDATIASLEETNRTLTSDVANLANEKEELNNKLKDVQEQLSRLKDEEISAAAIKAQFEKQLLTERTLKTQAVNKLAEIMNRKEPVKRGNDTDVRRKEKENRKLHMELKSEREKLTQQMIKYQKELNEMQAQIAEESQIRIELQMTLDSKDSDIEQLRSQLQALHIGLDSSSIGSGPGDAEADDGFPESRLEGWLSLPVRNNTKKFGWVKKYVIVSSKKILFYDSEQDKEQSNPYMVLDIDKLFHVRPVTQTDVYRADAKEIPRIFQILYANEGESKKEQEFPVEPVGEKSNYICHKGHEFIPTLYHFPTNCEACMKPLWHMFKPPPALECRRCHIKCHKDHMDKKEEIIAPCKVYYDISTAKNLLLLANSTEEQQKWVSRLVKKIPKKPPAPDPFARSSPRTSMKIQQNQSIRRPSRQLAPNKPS
Sequence of Angiotensin-converting enzyme (P12821 whole entry): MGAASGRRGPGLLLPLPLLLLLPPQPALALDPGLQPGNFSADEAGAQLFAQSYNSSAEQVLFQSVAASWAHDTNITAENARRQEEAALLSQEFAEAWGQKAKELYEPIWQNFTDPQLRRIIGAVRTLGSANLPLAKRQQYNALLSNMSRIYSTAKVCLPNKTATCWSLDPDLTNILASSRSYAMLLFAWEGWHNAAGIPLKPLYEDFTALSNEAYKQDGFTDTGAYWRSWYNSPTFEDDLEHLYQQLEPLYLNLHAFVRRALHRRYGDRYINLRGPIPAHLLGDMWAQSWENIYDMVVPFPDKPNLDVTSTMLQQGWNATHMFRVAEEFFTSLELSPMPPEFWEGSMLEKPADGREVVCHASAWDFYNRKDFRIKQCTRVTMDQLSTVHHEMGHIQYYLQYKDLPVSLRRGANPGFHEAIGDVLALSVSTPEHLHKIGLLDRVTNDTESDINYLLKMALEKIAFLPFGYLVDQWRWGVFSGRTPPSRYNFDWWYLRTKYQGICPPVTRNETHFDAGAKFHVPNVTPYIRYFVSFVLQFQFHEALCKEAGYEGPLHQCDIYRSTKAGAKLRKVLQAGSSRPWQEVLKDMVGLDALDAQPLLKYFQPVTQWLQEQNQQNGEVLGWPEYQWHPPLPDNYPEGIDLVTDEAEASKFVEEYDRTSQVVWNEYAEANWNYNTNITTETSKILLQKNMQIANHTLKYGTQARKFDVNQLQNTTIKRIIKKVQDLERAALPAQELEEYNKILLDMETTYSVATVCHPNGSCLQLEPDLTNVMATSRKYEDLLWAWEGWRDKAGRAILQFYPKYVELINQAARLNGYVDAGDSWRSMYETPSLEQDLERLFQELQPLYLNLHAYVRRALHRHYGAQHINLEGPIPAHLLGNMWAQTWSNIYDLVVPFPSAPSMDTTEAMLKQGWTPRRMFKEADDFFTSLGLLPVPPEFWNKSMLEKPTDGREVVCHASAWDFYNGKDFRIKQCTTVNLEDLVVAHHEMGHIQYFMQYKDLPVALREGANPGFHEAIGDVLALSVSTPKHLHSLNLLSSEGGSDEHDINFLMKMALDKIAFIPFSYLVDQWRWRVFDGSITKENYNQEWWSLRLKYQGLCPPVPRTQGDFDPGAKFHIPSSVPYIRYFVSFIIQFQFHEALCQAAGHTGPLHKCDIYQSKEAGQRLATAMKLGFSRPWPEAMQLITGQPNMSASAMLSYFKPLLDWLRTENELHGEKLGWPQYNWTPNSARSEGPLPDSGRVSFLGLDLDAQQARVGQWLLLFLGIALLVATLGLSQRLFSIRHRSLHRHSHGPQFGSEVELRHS

SMILES: CC[C@H]1/C=C/C[C@H](CC(C)C)OC(=O)/C(C)=C\[C@H]2C(=O)NC3=CC(=O)c4c(cc(C)c(O)c4C(=O)CC1)[C@@]32O
- pIC50 (SGC-7901): 5.55

SMILES: C/C=C/C1=CC(=O)[C@]2(C(=O)c3c(OC)cc(OC)cc3C(=O)OC)O[C@@H]2O1
- pIC50 (NCI-H1975): 5.43
- pIC50 (HL-60 [1]): 5.43

- pIC50 [2]: 6.02
SMILES: CCOC(=O)[C@H](Cc1c(O)cc(C)c2c(O)c3c(cc12)[C@@H](O)CCC3=O)C(=O)OC

SMILES: C=C1C(O)[C@@H]2/C=C/C[C@H](C)C(=O)[C@](C)(O)/C=C/OC(=O)O[C@]23C(=O)N[C@@H](Cc2ccc(OC)cc2)[C@@H]3[C@@H]1C (stereo not given in full)
- pIC50 (MCF7 [3]): 6.33
- pIC50 (A549 [4]): 6.33
- pIC50 (HepG2): 6.33
- pIC50 (A-375): 6.33

- pIC50 (HL-60 [5]): 5.89
- pIC50 (K562): 5.26
- pIC50 (ACHN [6]): 5.64
SMILES: C/C=C/[C@H](O[C@H]1O[C@@H](CO)[C@H](O)[C@@H](O)[C@@H]1O)[C@H](C)/C=C(C)/C=C/C/C(C)=C/Cc1nc(OC)c(OC)c(O)c1C

SMILES: CC(C)[C@@H](C)/C=C/[C@@H](C)[C@H]1CC[C@H]2C3=CC(=O)N(CCO)C3=CC[C@]12C
- IC50 (SF-268): 7.9 µg/mL (≈ 22.1 µM)
- IC50 (NCI-H460): 7.8 µg/mL (≈ 21.8 µM)
- IC50 (MCF7 [7]): 7.5 µg/mL (≈ 21 µM)

SMILES: CC(=C\C(=O)O)/C=C(\C)CCCCCC[C@H]1OC(=O)[C@@H]1CO
- EC50 [8]: 42.3 µg/mL (≈ 136 µM)

SMILES: CCC/C=C/[C@@H]1Cc2cc(O)c(C)c(O)c2C(=O)O1
- LC50 [9]: 18.6 µg/mL (≈ 70.9 µM)

- pIC50 (ACHN [10]): 7.70
SMILES: COc1nc(C/C=C(\C)C/C(C)=C/C(C)=C/[C@@H](C)[C@@H](O)/C(C)=C/C(C)=O)cc(O)c1OC

SMILES: CCCCC[C@@H]1Cc2cc(O)c(C)c(O)c2C(=O)O1
- LC50 [9]: 7.7 µg/mL (≈ 29.1 µM)

- MIC (Candida albicans): 5 µg/mL (≈ 9.11 µM)
SMILES: CCCCC[C@H]1C(=O)O[C@H](C)[C@H](NC(=O)c2cccc(NC=O)c2O)C(=O)O[C@@H](C)[C@@H]1OC(=O)[C@@H](C)C(C)C

- pIC50 [11]: 5.51
SMILES: CC(=O)C[C@@]1(O)C(=O)C2=C3O[C@H](C)C(C)(C)[C@]3(O)C(=O)c3c(C)cc(O)c(c32)C1=O

SMILES: C=C(C(C)=O)[C@H](O)[C@H](C)/C=C(C)/C=C/C/C(C)=C/Cc1nc(OC)c(OC)c(O)c1C
- pIC50 (OS-RC-2): 5.66

- pIC50 [12]: 5.28
SMILES: CC(=O)/C(=C\c1ccc(O)cc1)OC(Cc1c[nH]c2ccccc12)C(=O)O (stereo not given)

- MIC [13]: 0.125 µg/mL (≈ 0.449 µM)
SMILES: CC(=O)O[C@@H]1C[C@H](C)[C@@]23CC=C(C)[C@H](C2)C[C@@](C)(O)[C@@H]13

SMILES: COc1cc2nc(C(=O)NCC(=O)O)sc2c(C/C=C(\C)CC/C=C(\C)CC/C=C(\C)CCC/C(C)=C\CC(=O)O)c1O
- pIC50 [14]: 5.17
- pIC50 (NCI-H2122): 5.60

SMILES: CC1(C)C=Cc2c(ccc3c2[N+]([O-])=C2C3=C[C@@]34NC(=O)[C@]5(CCCN5C3=O)C[C@@H]4C2(C)C)O1
- pIC50 (A549 [15]): 5.72
- pIC50 (HL-60 [1]): 5.52

SMILES: COc1ccc(C[C@@H]2NC(=O)[C@@]34OC(=O)O/C=C/[C@@](C)(O)C(=O)[C@@H](C)C/C=C/[C@H]3C(O)C(C)=C(C)[C@@H]24)cc1 (stereo not given in full)
- pIC50 (MCF7 [3]): 6.33
- pIC50 (A549 [4]): 6.33
- pIC50 (HepG2): 6.33
- pIC50 (A-375): 6.33

SMILES: Cc1cccc2cc3c(c(O)c12)C(=O)CC[C@@H]3O
- pIC50 (HCT-116): 6.20
- pIC50 (SW-620): 6.20

SMILES: CC(/C=C/C1CC1)=C\[C@@H]1[C@@H](OC(=O)CC(C)C)[C@](C)(O)[C@@H]2[C@H]3O[C@H]3CCN12
- pIC50 (HeLa): 4.54
- pIC50 [16]: 4.41

- pIC50 [2]: 6.02
SMILES: CCOC(=O)[C@@H](Cc1c(O)cc(C)c2c(O)c3c(cc12)[C@@H](O)CCC3=O)C(=O)OC

- pIC50 (A549 [17]): 6.00
SMILES: C=C1CC[C@H]2C(C)(C)CCC[C@]2(C)[C@H]1C[C@@]12C[C@H]3C(=O)N(C)[C@@H](C(C)C)C(=O)N3[C@@H]1Nc1ccccc12
- pIC50 (HCT-8): 6.00
- pIC50 (A2780): 6.00
- pIC50 (Bel-7402): 6.00
